{"source": "patent US20170079979A1", "about": "“THERAPY FOR SOLID TUMORS” (Children's Hospital Medical Center, priority 2014, published 2017)", "key": {"AU565 cells": {"tested_on": "AU565 cells", "assay": "AU565 breast cancer cell survival with NRG1 and lapatinib (FIG. 1)", "format": "cell-based", "conditions": "for cell survival: concomitant inhibition of Dusp-1 by BCI and c-Fos by either curcumin or DFC (combination), FIG. 1 right panel", "description": "AU565 cell line was established from the malignant pleural effusion of the mammary gland, which overexpresses the HER2. This class of tumors is treated by lapatinib. This treatment is not curative and relapse is common because cancer stem cells are not responsive to the treatment."}, "HCC827 cells": {"tested_on": "HCC827 cells", "assay": "HCC827 lung cancer cell survival with HGF and erlotinib (FIG. 2)", "format": "cell-based", "conditions": "concomitant inhibition of Dusp-1 by BCI and c-Fos by either curcumin or DFC (combination), FIG. 2 right panel", "from_the_text": "HCC827 cell line was derived from the lung adenocarcinoma. This lung adenocarcinoma has an acquired mutation in the EGFR tyrosine kinase domain (E746-A750 deletion). […] Most patients develop resistance by acquiring gatekeeper mutation the kinase domain and single TKI treatment is not curative because cancer stem cells are refractory to the treatment. In addition overexpression of growth factor HGF leading to activation of MET is a more frequent way of bypassing the EGFR mediated survival in this tumor model. Besides, cancer stem cells in the presence of growth factor are not addicted to the oncogene."}, "H1703 cells": {"tested_on": "H1703 cells", "assay": "H1703 lung sarcoma cell survival with EGF and sunitinib (FIG. 3)", "format": "cell-based", "conditions": "concomitant inhibition of Dusp-1 by BCI and c-Fos by either curcumin or DFC (combination), FIG. 3 right panel", "description": "H1703 cell line was derived from the lung sarcoma, which is driven by PDGFRA as this cell line has amplified the PDGFRA. This group of patients is treated with sunitinib."}, "RT4 cells": {"tested_on": "RT4 cells", "assay": "RT4 bladder cancer cell survival with EGF and PLX4032 (FIG. 4)", "format": "cell-based", "conditions": "FIG. 4 right panel; for cell survival: concomitant inhibition of Dusp-1 by BCI and c-Fos by either curcumin or DFC (combination)", "description": "To determine the effect of c-Fos and Dusp-1 inhibition with the tyrosine kinase inhibitor PLX4032, RT4 cells were assayed, as a model bladder cancer, shown in FIG. 4. This cell line was derived from bladder cancer patients, which has amplification of EGFR."}, "[1]": {"tested_on": "leukemia initiating cells (LIC)", "conditions": "cited from earlier work"}, "parental BaF3 cells": {"tested_on": "parental BaF3 cells", "conditions": "cited from earlier work; for effect of the drug combination: Imatinib combined with BCI"}, "BaF3-BCR-ABL cells": {"tested_on": "BaF3-BCR-ABL cells", "conditions": "Imatinib combined with BCI, cited from earlier work"}}, "note": "Where a name gives a salt, the structure may show the parent alone.", "data": [{"smiles": "COc1cc(/C=C/C(=O)CC(=O)/C=C/c2ccc(O)c(OC)c2)ccc1O", "note": "[curcumin]", "values": [{"measurement": "cell survival", "setting": "AU565 cells", "result": "completely suppresses the cell survival"}, {"measurement": "cell survival", "setting": "HCC827 cells", "result": "completely suppresses the cell survival"}, {"measurement": "cell survival", "setting": "H1703 cells", "result": "completely suppresses the cell survival"}, {"measurement": "relative potency of the BCI combination (curcumin versus DFC)", "setting": "RT4 cells; combination with BCI", "result": "more potent"}, {"measurement": "cell survival", "setting": "RT4 cells", "result": "completely suppresses the cell survival"}]}, {"smiles": "CS(=O)(=O)CCNCc1ccc(-c2ccc3ncnc(Nc4ccc(OCc5cccc(F)c5)c(Cl)c4)c3c2)o1", "note": "[lapatinib]", "values": [{"measurement": "TKI response on addition of growth factor", "setting": "AU565 cells; addition of NRG1, lapatinib", "result": "confer resistance"}]}, {"smiles": "Cc1ccc(NC(=O)c2ccc(CN3CCN(C)CC3)cc2)cc1Nc1nccc(-c2cccnc2)n1", "note": "[Imatinib, Imatinib mesylate]", "values": [{"measurement": "survival of patients with leukemia", "setting": "[1]", "result": "improved the survival"}, {"measurement": "elimination of leukemia initiating cells (LIC)", "setting": "[1]; patients with leukemia", "result": "did not eliminate"}, {"measurement": "effect of the drug combination", "setting": "parental BaF3 cells", "result": "no effect"}, {"measurement": "survival and apoptosis", "setting": "parental BaF3 cells; inhibition of c-Fos and Dusp-1 together with Imatinib treatment", "result": "no effect"}]}, {"smiles": "COc1cc(/C=C/C(=O)C(=Cc2ccc(F)c(F)c2)C(=O)/C=C/c2ccc(O)c(OC)c2)ccc1O", "note": "[DFC, difluorinated curcumin]", "values": [{"measurement": "cell survival", "setting": "AU565 cells", "result": "completely suppresses the cell survival"}, {"measurement": "cell survival", "setting": "H1703 cells", "result": "completely suppresses the cell survival"}, {"measurement": "cell survival", "setting": "RT4 cells", "result": "completely suppresses the cell survival"}]}, {"smiles": "O=C1/C(=C/c2ccccc2)C(NC2CCCCC2)c2ccccc21", "note": "(centres unmarked) [BCI, (E)-2-benzylidene-3-(cyclohexylamino)-2,3-dihydro-1H-inden-1-one]", "values": [{"measurement": "cell survival", "setting": "AU565 cells", "result": "completely suppresses the cell survival"}, {"measurement": "effect of the drug combination", "setting": "BaF3-BCR-ABL cells; BCR-ABL positive cells", "result": "no effect"}, {"measurement": "sensitivity in cell proliferation assay", "setting": "BaF3-BCR-ABL cells; BaF3-BCR-ABL cells with c-Fos knockdown", "result": "fully sensitive"}, {"measurement": "cell survival", "setting": "HCC827 cells", "result": "completely suppresses the cell survival"}, {"measurement": "cell survival", "setting": "H1703 cells", "result": "completely suppresses the cell survival"}, {"measurement": "effect of the drug combination", "setting": "parental BaF3 cells", "result": "no effect"}, {"measurement": "cell survival", "setting": "RT4 cells", "result": "completely suppresses the cell survival"}]}]}
